Source: patent US12234288B2, “Immunogenic arginase 2 polypeptides” (IO Biotech ApS, priority 2018, dated 2025)

Assays:
[1] = tested on: C57BL/6 mice; assay: Peptide vaccination of mice followed by murine IFNy ELISPOT of spleen cells; assay type: in vivo, mouse; conditions: for mIFNy ELISPOT response to the peptide in mice vaccinated with mArg2 P5: FIG. 13; for mIFNy ELISPOT response after vaccination: three C57 mice per peptide vaccinated s.c., 7 days, FIG. 12 / FIG. 20A
From the text: 3 mice in each group are vaccinated s.c. with one of the six peptides. 7 days after, the mice are terminated, spleens are homogenised and PBMC are used for mIFNy ELISPOT.
These peptides are used for a vaccination screen (see experimental schematic in FIG. 11), where three C57 mice are vaccinated subcutaneously with one of the 6 peptides. One week later, the mice are sacrificed and the spleens homogenized to obtain PBMC. These are used to set up IFNy ELISPOT to screen for responses against both the peptide used for vaccination and the other predicted epitope peptides with overlapping sequences.
(§1) Dissolved peptides were subsequently emulsified with Montanide™ adjuvant (50ul/mouse) (Seppic Inc.) for an optimal dose of 100 ug total peptide given in a total volume of 100 ul. The emulsified peptide vaccination was injected subcutaneously at the base or the tail or the flank of 12-16 week old C57BL/6 mice with a 27G needle. Control mice were given water and Montanide™ emulsification in a total volume of 100 ul. For therapeutic vaccine studies on tumor inoculated mice, vaccinations were given at day 0 and 7 after tumor inoculation at the flank of the tail and the left flank, respectively. For epitope screening- and validation experiments, a single dose of vaccine was given to mice at the right flank. One week later, mice were sacrificed, and spleens were recovered. Spleens were smashed through a […] filter and red blood cells were lysed using Red Blood Cell Lysis Buffer (Qiagen). Cells were washed 4 times and counted before setup for murine IFNy ELISPOT assay with 8*10^6 cells pr. well.

[2] = tested on: PBMCs from healthy donors and cancer patients; assay: IFNγ ELISPOT of PBMCs pre-stimulated one week in vitro with peptide and low-dose IL-2; assay type: cell-based, human; conditions: for IFNy ELISPOT response: validation of hotspot region peptides, PBMCs from two healthy donors, FIG. 4
Experimental: For in vitro ELISPOT, PBMCs from cancer patients and healthy donors were pulsed with 20 μM of […] (or with no peptide as a control) and 120 U/ml IL-2 in 24-well plates for 7 days before being used in an ELISPOT assay. The cells were placed in 96-well nitrocellulose ELISPOT plates (MultiScreen MAIP N45; Millipore) pre-coated with IFNγ capture antibody (Mabtech). Arginase peptides added to a final concentration of 5 μM and plates incubated at 37° C. for 14-16 hours. After the incubation the cells were washed off and secondary biotinylated Ab (Mabtech, cat. 3420-{6-1000) was added for 2 hours at room temperature. Unbound secondary antibody was washed off and streptavidin conjugated alkaline phosphatase (AP) (Mabtech, cat. 3310-10) was added for 1 hour at room temperature. Unbound conjugated enzyme was washed off and the assay was developed by adding BCIP/NBT substrate (Mabtech, cat. 3650-10). Developed ELISPOT plates were analyzed on CTL ImmunoSpot S6 Ultimate-V analyzer using Immunospot software v5.1. Responses were reported as the difference between average numbers of spots in wells stimulated with arginase2 and wells without added peptide.
To test whether these peptides could be used to identify Arginase2 responses, PBMCs from 12 healthy donors and one cancer patients were screened for responses in IFNγ ELISPOT. PBMCs were stimulated with Arginase2 peptides and low dose IL-2 for 1 week prior to ELISPOT.
The entire arginase2 protein sequence was divided into overlapping 20-amino-acid-long peptides (with a final peptide of 24 amino acids), generating a library of 34 peptides covering the whole sequence (SEQ ID NOs 1-34)). Each peptide in the library overlapped with the first 10 amino acids of the following peptide. Using this arginase2 peptide library and the IFNγ ELISPOT assay, we next screened PBMCs from 6 healthy donors for spontaneous responses. The PBMCs were stimulated for one week with a pool of 3-4 adjacent 20-mer arginase2 library peptides and low-dose IL-2 (120 U/mL). They were then set up for an IFNγ ELISPOT assay to screen for responses against each 20-mer peptide separately.
PBMCs from two healthy donors were stimulated for one week with a single peptide and low-dose IL-2 (120 U/mL) before IFNy ELISPOTassay to validate the responses observed in the library screen.
PBMCs from […] were stimulated for one week with a single peptide and low-dose IL-2 (120 U/mL) before IFNy ELISPOTassay to validate the responses observed in the library screen. ARG2_1, ARG2_5, ARG2_13, ARG2_18 and ARG2_22 were tested in this validation.
ARG2_1 was used to screen for responses in 8 melanoma patients (AA07-AA31), 4 prostate cancer patients (UR07-27) and 13 healthy donors. PBMCs from each were stimulated for one week with a single peptide and low-dose IL-2 (120 U/mL) before IFNy ELISPOT assay.
PBMCs from healthy donors or cancer patients were stimulated with 10 μM of ARG2-derived peptides in vitro to enhance assay sensitivity. On day 2, IL-2 was added to a total of 120 U/ml IL-2 (Novartis). After 7 days, 4-6×10^5 PBMCs were placed at the bottom of an ELISPOT plate pre-coated with IFNy capture antibody (Mabtech). PBMCs from each donor or patient were set up in triplicates or quadruplicates for peptide (5 μM ARG2-derived peptide) and control stimulations. Cells were incubated in ELISPOT plates in the presence of an antigen for 14-16 hrs after which they were washed off and secondary biotinylated antibody (Mabtech) was added. After two hour incubation the secondary antibody was washed off before addition of streptavidin conjugated alkaline phosphatase (Mabtech) for 1 hr. Next, unbound enzyme was washed off and the assay was developed by adding BCIP/NBT subtrate (Mabtech). Developed ELISPOT plates were analyzed on CTL Immunospot S6 Ultimate-V analyzer with ImmunoSpot software, version 5.1. […]

[3] = tested on: THP-1 cells; assay: ARG1/ARG2 expression by RT-qPCR in THP-1 cells; assay type: cell-based, human; conditions: 48 hr stimulation, FIG. 17C/17H
Experimental: (§2) Cytokine stimulation with IL-4 (400 U/ml), IL-13 (50 ng/ml), IFNy (100 U/ml) or cytokine cocktail (400 U/ml IL-4, 1000 U/ml GM-CSF and 1000 U/ml TNFa) was done by seeding of 0.5-0.75×10^6 cell/mL medium supplemented with the respective cytokines and 48 hrs of incubation before cells were harvested for various experiments. All cytokines are from Trichem.
(§3) Total RNA was reverse transcribed using the High Capacity cDNA Reverse Transcription Kit (Applied Biosystems). For each reaction, 1000 ng RNA was reverse transcribed. For RT-qPCR, the cDNA was diluted 1:5 and subjected to RT-qPCR analysis using the TaqMan Gene Expression Assay on the Roche Lightcycler 480 Instrument. RT-qPCRs were run in quadruplicates and data was analyzed using the ddCT-method with normalization to expression level of the house keeping gene RPLPO and control sample. For low concentration samples that were not amplified, Ct was set to 40. No-reverse transcriptase controls (cDNA reactions setup without reverse transcriptase) served as controls of specific amplification. A list of primers used in this study is found below.
A set of three siRNA duplexes targeting ARG2 was obtained from Ambion (ARG2 Silencer Select Validated siRNA, ID s1571, s1572, s1573). siRNAs were suspended in nuclease free water to 0.1 nmol stock solutions and stored at −80° C. For ARG2 silencing experiments, THP-1 cells were prepared for electroporation as described above and 10 μl of a working solution of 0.02 nmol siRNA solution was added of each of the three siRNA before transfection as previously described. Immediately after transfection, cells were transferred to pre-warmed medium and incubated for 1 hr. Transfected cells were then split in two and to half of the cells cytokine cocktail (400 U/ml IL-4, 1000 U/ml GM-CSF and 1000 U/ml TNFa) was added. Cells were incubated in medium or medium containing cytokine cocktail for 48 hrs before they were set up in intracellular cytokine staining assay. Cells were pelleted for RNA after 48 hrs for accession of knock down efficiency by RT-qPCR.

[4] = tested on: Lewis Lung (LL2) tumor cells; assay: Therapeutic vaccination study in Lewis Lung (LL2) tumor inoculated mice; assay type: in vivo; conditions: LL2 tumors in C57BL/6 mice, vaccinations day 0 and day 7, compared to control, FIG. 20E-G
Experimental: LL2 cells (5*10^5) were resuspended in 100 ul of serum free medium and were injected subcutaneously in the right flank of female C57BL/6 mice. Tumor volumes were measured by digital caliper and the endpoint of tumor study was a tumor reaching the threshold size of 800 mm^3 or due to the formation of ulcers on the tumor.
as §1, with “well. […]” for “well.”

[5] = tested on: MONO-MAC-1 cells; assay: ARG2 expression by RT-qPCR in MONO-MAC-1 cells; assay type: cell-based, human; conditions: 48 hrs incubation, FIG. 18A/B
Experimental: as §2, §3

[6] = tested on: THP-1 cells; assay: Flow cytometric analysis of HLA-DR expression in THP-1 cells; assay type: cell-based, human; conditions: 48 hrs stimulation, data not shown
Experimental: HLA-DR expression analysis was performed on cells stimulated for 48 hrs with mock (no cytokines), IFNy (100U/ml) or cytokine cocktail (400U/m1 IL-4, 1000 U/ml GM-CSF and 1000 U/ml TNFa). Briefly, cells were washed and stained with 7-AAD (cat: 51-68981E, BD Bioscience) and FITC-conjugated mouse anti-human HLA-DR, DP, DQ (cat: 5555581, BD Bioscience) or FITC-conjugated mouse IgG1 K isotype ctrl (FC) (cat: 400109, BD Bioscience) for 30 minutes at 4° C. Excess antibody was washed off before cells were analyzed on FACSCanto™ II instrument. HLA-DR expression levels is given as the difference in MFI between MHC Class II stained live cells and isotype control stained live cells.

For “PNIVYIGL (listed as Mus musculus) [mArg2 P3, polypeptide derived from murine Arginase2, aa191-198]”, the “mIFNy ELISPOT response to the peptide in mice vaccinated with mArg2 P5” value (“mIFNy ELISPOT response to the peptide” below) [1] was “no response or only weak responses”.

For “NYDIQYFSMRDIDRLGIQKV (listed as Homo sapiens) [ARG2_21, polypeptide derived from human Arginase2, aa211-230]”, the “IFNy ELISPOT response” value [2] was “stronger response”.

In the case of “IL-13: cytokine from Trichem, used at 50 ng/ml [reference compound]”, the “induction of ARG2 expression” value [3] is reported as “did not have much effect”.

“FSWIKPCISSASIVYIGLRD (listed as Homo sapiens) [ARG2_18, polypeptide derived from human Arginase2, aa181-200]” was tested, and the “IFNy ELISPOT response” value [2] was “strongest and most consistent responses”.

“WIKPCLSPPNIVYIGL (listed as Mus musculus) [mArg2 P4, polypeptide derived from murine Arginase2, aa182-197]” was tested, and the “mIFNy ELISPOT response to the peptide” value ([1]; listed as mArg2_182-197) was “strong mIFNy responses”, the “mIFNy ELISPOT response after vaccination” value [1] was “Strong immune responses” and the tumor growth [4] was “decreased tumor growth”.

For “SASIVYIGLRDVDPPEHFIL (listed as Homo sapiens) [ARG2-E18, polypeptide derived from human Arginase2, aa190-209]”, the “IFNγ ELISPOT response” value ([2]; hotspot peptide screen, PBMCs from 12 healthy donors and one cancer patient, FIG. 2) was “highest and most consistent response”.

In the case of “LSPPNIVYI (listed as Mus musculus) [mArg2 P5, polypeptide derived from murine Arginase2, aa188-196]”, the “mIFNy ELISPOT response to the peptide” value ([1]; listed as mArg2_188-196) is reported as “strong mIFNy responses” and the “mIFNy ELISPOT response after vaccination” value [1] is reported as “strongest and most prominent responses”.

B1: IFNy: cytokine from Trichem, used at 100 U/ml (protein, UniProt P01579 24-161, looked up)
Interferon gamma: QDPYVKEAENLKKYFNAGHSDVADNGTLFLGILKNWKEESDRKIMQSQIVSFYFKLFKNFKDDQSIQKSVETIKEDMNVKFFNSNKKKRDDFEKLTNYSVTDLNVQRKAIHELIQVMAELSPAAKTGKRKRSQMLFRG
With B1 the ARG2 expression [5] was “did not upregulate ARG2 expression”, the HLA-DR expression [6] was “increase HLA-DR expression” and the “induction of ARG2 expression” value [3] was “not ARG2 expression”.

B2: IL-4: cytokine from Trichem, used at 400 U/ml (protein, UniProt P05112 25-153, looked up)
Interleukin-4: HKCDITLQEIIKTLNSLTEQKTLCTELTVTDIFAASKNTTEKETFCRAATVLRQFYSHHEKDTRCLGATAQQFHRHKQLIRFLKRLDRNLWGLAGLNSCPVKEANQSTLENFLERLKTIMREKYSKCSS
In the case of B2, the “induction of ARG2 expression” value [3] is reported as “did not have much effect”.
